Target: NAMPT (recombinant human) (Homo sapiens, UniProt P43490)
Assay: biolayer interferometry
Assay type: binding

Sequence of NAMPT (recombinant human) (P43490 whole entry): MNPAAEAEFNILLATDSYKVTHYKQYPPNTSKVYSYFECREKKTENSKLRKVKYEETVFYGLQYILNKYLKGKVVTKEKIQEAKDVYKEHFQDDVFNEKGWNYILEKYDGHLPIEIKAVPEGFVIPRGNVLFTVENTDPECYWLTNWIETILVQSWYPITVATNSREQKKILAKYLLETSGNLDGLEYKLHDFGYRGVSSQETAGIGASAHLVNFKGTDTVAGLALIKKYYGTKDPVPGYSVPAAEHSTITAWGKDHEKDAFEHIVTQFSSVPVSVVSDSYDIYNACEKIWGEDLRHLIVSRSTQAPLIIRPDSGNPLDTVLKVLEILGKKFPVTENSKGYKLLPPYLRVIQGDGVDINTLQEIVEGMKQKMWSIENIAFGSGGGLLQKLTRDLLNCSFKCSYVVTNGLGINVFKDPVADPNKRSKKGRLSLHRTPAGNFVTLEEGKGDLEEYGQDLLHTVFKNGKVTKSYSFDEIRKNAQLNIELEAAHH

## O=C(CC(C(=O)O)c1c[nH]c2ccccc12)c1ccc(F)cc1F (racemic) [MA-5]
  Kd: 106 µM

Reference: doi:10.1101/2025.04.18.649305v1 (biorxiv, 2025)
